Laboratory results as given in PubChem BioAssay AID1259407 (Chemical Carcinogenesis Research Information System (CCRIS), 2018).
Active and inactive are the calls of the source. No rule for the calls is given here.

System: CCRIS mutagenicity, Ames/micronucleus/aberration tests
Test: CCRIS mutagenicity studies
[1] = Test System: AMES SALMONELLA TYPHIMURIUM, Strain/Indicator: TA98, Metabolic Activation: NONE, Method: PREINCUBATION
[2] = Test System: AMES SALMONELLA TYPHIMURIUM, Strain/Indicator: TA98, Metabolic Activation: RAT, LIVER, S-9, AROCLOR 1254, Method: PREINCUBATION
[3] = Test System: AMES SALMONELLA TYPHIMURIUM, Strain/Indicator: TA100, Metabolic Activation: NONE, Method: PREINCUBATION
[4] = Test System: AMES SALMONELLA TYPHIMURIUM, Strain/Indicator: TA100, Metabolic Activation: RAT, LIVER, S-9, AROCLOR 1254, Method: PREINCUBATION
[5] = Test System: AMES SALMONELLA TYPHIMURIUM, Strain/Indicator: TA1535, Metabolic Activation: NONE, Method: PREINCUBATION
[6] = Test System: AMES SALMONELLA TYPHIMURIUM, Strain/Indicator: TA1537, Metabolic Activation: NONE, Method: PREINCUBATION
[7] = Test System: AMES SALMONELLA TYPHIMURIUM, Strain/Indicator: TA98, Metabolic Activation: NONE, Method: STANDARD PLATE
[8] = Test System: AMES SALMONELLA TYPHIMURIUM, Strain/Indicator: TA98, Metabolic Activation: RAT, LIVER, S-9, AROCLOR 1254, Method: STANDARD PLATE
[9] = Test System: AMES SALMONELLA TYPHIMURIUM, Strain/Indicator: TA100, Metabolic Activation: NONE, Method: STANDARD PLATE
[10] = Test System: AMES SALMONELLA TYPHIMURIUM, Strain/Indicator: TA100, Metabolic Activation: RAT, LIVER, S-9, AROCLOR 1254, Method: STANDARD PLATE
[11] = Test System: AMES SALMONELLA TYPHIMURIUM, Strain/Indicator: TA98, Metabolic Activation: S-9, Method: STANDARD PLATE
[12] = Test System: AMES SALMONELLA TYPHIMURIUM, Strain/Indicator: TA100, Metabolic Activation: S-9, Method: STANDARD PLATE

Measured: mutagenic call

COc1ccc(OC)cc1
inactive: Test System: AMES SALMONELLA TYPHIMURIUM, Strain/Indicator: TA98, Metabolic Activation: HAMSTER, LIVER, S-9, AROCLOR 1254, Method: PREINCUBATION inactive; negative | [1] inactive; negative | [2] inactive; negative | Test System: AMES SALMONELLA TYPHIMURIUM, Strain/Indicator: TA100, Metabolic Activation: HAMSTER, LIVER, S-9, AROCLOR 1254, Method: PREINCUBATION inactive; negative | [3] inactive; negative | [4] inactive; negative | Test System: AMES SALMONELLA TYPHIMURIUM, Strain/Indicator: TA1535, Metabolic Activation: HAMSTER, LIVER, S-9, AROCLOR 1254, Method: PREINCUBATION inactive; negative | [5] inactive; negative | Test System: AMES SALMONELLA TYPHIMURIUM, Strain/Indicator: TA1535, Metabolic Activation: RAT, LIVER, S-9, AROCLOR 1254, Method: PREINCUBATION inactive; negative | Test System: AMES SALMONELLA TYPHIMURIUM, Strain/Indicator: TA1537, Metabolic Activation: HAMSTER, LIVER, S-9, AROCLOR 1254, Method: PREINCUBATION inactive; negative | [6] inactive; negative | Test System: AMES SALMONELLA TYPHIMURIUM, Strain/Indicator: TA1537, Metabolic Activation: RAT, LIVER, S-9, AROCLOR 1254, Method: PREINCUBATION inactive; negative

O=[N+]([O-])c1ccc2c3c(c4cccc5ccc1c2c54)CCCC3
active: [7] active; positive | [8] active; positive

O=Cc1cn([C@@H]2O[C@H](CO)[C@@H](O)[C@H]2O)c(=O)[nH]c1=O
inactive: Test System: CHINESE HAMSTER V-79, Strain/Indicator: V-79 (HPRT)/6-THIOGUANINE, Metabolic Activation: NONE, Method: STANDARD PLATE inactive; negative

Cc1cc2c(c3ccc4ccccc4c13)[C@@H]1O[C@@H]1[C@H](O)[C@H]2O
active: [3] active; positive

O=[N+]([O-])c1ccc2nc3c([N+](=O)[O-])cccc3nc2c1
active: Test System: AMES SALMONELLA TYPHIMURIUM, Strain/Indicator: TA98(NR), Metabolic Activation: NONE, Method: PREINCUBATION active; positive | [1] active; positive

CCOC(=O)c1ccc(N(O)C=O)cc1
inactive: [7] inactive; negative | [8] inactive; negative | [9] inactive; negative | [10] inactive; negative

c1ccoc1
inactive: End Point: In vitro micronucleus, Test System: Human lymphocytes, Metabolic Activation: None inactive; negative | End Point: In vitro micronucleus, Test System: Human lymphocytes, Metabolic Activation: Rat, liver, S-9, Aroclor 1254 inactive; negative | End Point: In vitro micronucleus, Test System: Mouse lymphoma L5178Y cells, Metabolic Activation: None inactive; negative | End Point: In vivo micronucleus, Test System: Peripheral blood erythrocytes, Species: Mouse, Strain/Sex: Balb/C/Male, Route: Intraperitoneal inactive; negative | End Point: In vivo micronucleus, Test System: Peripheral blood erythrocytes, Species: Mouse, Strain/Sex: Balb/C/Male, Route: Subcutaneous inactive; negative | Test System: AMES SALMONELLA TYPHIMURIUM, Strain/Indicator: TA98, Metabolic Activation: HAMSTER, LIVER, S-9, AROCLOR 1254 (10%), Method: PREINCUBATION inactive; negative | [1] inactive; negative | Test System: AMES SALMONELLA TYPHIMURIUM, Strain/Indicator: TA98, Metabolic Activation: RAT, LIVER, S-9, AROCLOR 1254 (10%), Method: PREINCUBATION inactive; negative | [8] inactive; negative | Test System: AMES SALMONELLA TYPHIMURIUM, Strain/Indicator: TA100, Metabolic Activation: HAMSTER, LIVER, S-9, AROCLOR 1254 (10%), Method: PREINCUBATION inactive; negative | [3] inactive; negative | Test System: AMES SALMONELLA TYPHIMURIUM, Strain/Indicator: TA100, Metabolic Activation: RAT, LIVER, S-9, AROCLOR 1254 (10%), Method: PREINCUBATION inactive; negative | [12] inactive; negative | Test System: AMES SALMONELLA TYPHIMURIUM, Strain/Indicator: TA1535, Metabolic Activation: HAMSTER, LIVER, S-9, AROCLOR 1254 (10%), Method: PREINCUBATION inactive; negative | [5] inactive; negative | Test System: AMES SALMONELLA TYPHIMURIUM, Strain/Indicator: TA1535, Metabolic Activation: RAT, LIVER, S-9, AROCLOR 1254 (10%), Method: PREINCUBATION inactive; negative | Test System: AMES SALMONELLA TYPHIMURIUM, Strain/Indicator: TA1537, Metabolic Activation: HAMSTER, LIVER, S-9, AROCLOR 1254 (10%), Method: PREINCUBATION inactive; negative | [6] inactive; negative | Test System: AMES SALMONELLA TYPHIMURIUM, Strain/Indicator: TA1537, Metabolic Activation: RAT, LIVER, S-9, AROCLOR 1254 (10%), Method: PREINCUBATION inactive; negative | Test System: Mouse lymphoma, Strain/Indicator: L5178Y (tk+/tk-), Metabolic Activation: None, Method: Preincubation inactive; negative
active: [11] active; positive

Nc1ccc(CCc2ccc(N)cc2)cc1
inactive: [7] inactive; negative | [9] inactive; negative
active: [8] active; positive | [10] active; positive

CC(=O)ON(C(C)=O)c1ccc(Oc2ccccc2)cc1
active: Test System: AMES SALMONELLA TYPHIMURIUM, Strain/Indicator: TA100, Metabolic Activation: GUINEA PIG, LIVER, S-9, KANECLOR 500, Method: STANDARD PLATE active; positive

Cc1ccc2nc3n(C)c4ccc(C)cc4c(C)c-3c2c1
active: [8] active; positive

CC(=O)N[C@@H](CS/C(F)=C(\F)C(F)(F)F)C(=O)O
inactive: Test System: AMES SALMONELLA TYPHIMURIUM, Strain/Indicator: TA100, Metabolic Activation: RAT, KIDNEY, S-9, AROCLOR 1254, Method: STANDARD PLATE inactive; negative

O=[N+]([O-])c1ccc(/C=C/c2ccc([N+](=O)[O-])cc2)cc1
active: Test System: AMES SALMONELLA TYPHIMURIUM, Strain/Indicator: TA98 (NR), Metabolic Activation: NONE, Method: STANDARD PLATE active; positive | [7] active; positive | [11] active; positive | [9] active; positive | [12] active; positive
inactive: Test System: AMES SALMONELLA TYPHIMURIUM, Strain/Indicator: TA98 (NR), Metabolic Activation: S-9, Method: STANDARD PLATE inactive; negative | Test System: AMES SALMONELLA TYPHIMURIUM, Strain/Indicator: TA100 (NR), Metabolic Activation: NONE, Method: STANDARD PLATE inactive; negative | Test System: AMES SALMONELLA TYPHIMURIUM, Strain/Indicator: TA100 (NR), Metabolic Activation: S-9, Method: STANDARD PLATE inactive; negative

CS(=O)(=O)N1C2c3ccccc3-c3ccccc3C21 (stereo not drawn)
inactive: Test System: CHINESE HAMSTER V-79, Strain/Indicator: V-79/6-THIOGUANINE, Metabolic Activation: NONE, Method: STANDARD PLATE inactive; negative
active: [9] active; positive

Cc1nccc2c1[nH]c1ccccc12
active: Test System: AMES SALMONELLA TYPHIMURIUM, Strain/Indicator: TA97, Metabolic Activation: NONE, Method: PREINCUBATION active; positive
inactive: Test System: AMES SALMONELLA TYPHIMURIUM, Strain/Indicator: TA97, Metabolic Activation: RAT, LIVER, S-9, AROCLOR 1254, Method: PREINCUBATION inactive; negative | [1] inactive; negative | [2] inactive; negative | [3] inactive; negative | [4] inactive; negative | Test System: AMES SALMONELLA TYPHIMURIUM, Strain/Indicator: TA102, Metabolic Activation: NONE, Method: PREINCUBATION inactive; negative | Test System: AMES SALMONELLA TYPHIMURIUM, Strain/Indicator: TA102, Metabolic Activation: RAT, LIVER, S-9, AROCLOR 1254, Method: PREINCUBATION inactive; negative
